Measurements reported in ChEMBL document CHEMBL5260810, “Inhibition of bromodomain-containing protein 9 for the prevention of epigenetically-defined drug resistance” (Bioorg Med Chem Lett, 2017).

What was measured:
Type in all cases: functional, cell-based
[1] = Cytotoxicity against mouse TRAMP-C2 cells measured after 8 days; conditions: TRAMP-C2, 192 h
U2OS = assay: Cytotoxicity against human U2OS cells measured after 8 days; conditions: 192 h
[2] = Cytotoxicity against human PaTu 8988s cells measured after 8 days; conditions: 192 h
C3A = assay: Cytotoxicity against human C3A cells measured after 8 days; conditions: 192 h
TMD8 = assay: Cytotoxicity against human TMD8 cells measured after 8 days; conditions: TMD8, 192 h
HEC-1B cell line = assay: Cytotoxicity against human HEC-1B cell line measured after 8 days; conditions: 192 h
[3] = Cytotoxicity against mouse TRAMP-C1 cells measured after 8 days; conditions: TRAMP-C1, 192 h
SW780 = assay: Cytotoxicity against human SW780 cells measured after 8 days; conditions: SW780, 192 h
COR-L279 = assay: Cytotoxicity against human COR-L279 cells measured after 8 days; conditions: COR-L279, 192 h
RCM-1 = assay: Cytotoxicity against human RCM-1 cells measured after 8 days; conditions: RCM-1, 192 h
KYSE-140 = assay: Cytotoxicity against human KYSE-140 cells measured after 8 days; conditions: KYSE-140, 192 h
[4] = Cytotoxicity against human ECC-1 cells measured after 8 days; conditions: ECC-1, 192 h
[5] = Cytotoxicity against human C32TG cells measured after 8 days; conditions: 192 h
[6] = Cytotoxicity against human HEC-50B cells measured after 8 days; conditions: 192 h
B16-F10 = assay: Cytotoxicity against mouse B16-F10 Luciferase cells measured after 8 days; conditions: B16-F10, 192 h
RT-112 = assay: Cytotoxicity against human RT-112 cells measured after 8 days; conditions: RT-112, 192 h
[7] = Cytotoxicity against human NCE-G 124 cells measured after 8 days; conditions: NCE-G 124, 192 h
MHH-ES-1 = assay: Cytotoxicity against human MHH-ES-1 cells measured after 8 days; conditions: MHH-ES-1, 192 h
NCI-H716 = assay: Cytotoxicity against human NCI-H716 cells measured after 8 days; conditions: NCI-H716, 192 h
[8] = Cytotoxicity against human MS751 cells measured after 8 days; conditions: MS751, 192 h
S-117 = assay: Cytotoxicity against human S-117 cells measured after 8 days; conditions: S-117, 192 h
[9] = Cytotoxicity against human RKOE6 cells measured after 8 days; conditions: RKOE6, 192 h
G-402 = assay: Cytotoxicity against human G-402 cells measured after 8 days; conditions: G-402, 192 h
WM 266-4 = assay: Cytotoxicity against human WM266-4 cells measured after 8 days; conditions: WM 266-4, 192 h
CFPAC-1 = assay: Cytotoxicity against human CFPAC-1 cells measured after 8 days; conditions: CFPAC-1, 192 h
[10] = Cytotoxicity against human RERF-GC-1B cells measured after 8 days; conditions: 192 h
[11] = Cytotoxicity against human HCSC-1 cells measured after 8 days; conditions: HCSC-1, 192 h
[12] = Cytotoxicity against human 4498-16820 Mel-BR1 cells measured after 8 days; conditions: 4498-16820 Mel-BR1, 192 h
KALS-1 = assay: Cytotoxicity against human KALS-1 cells measured after 8 days; conditions: KALS-1, 192 h
SK-N-AS = assay: Cytotoxicity against human SK-N-AS cells measured after 8 days; conditions: 192 h
SISO = assay: Cytotoxicity against human SISO cells measured after 8 days; conditions: 192 h
KYSE-270 = assay: Cytotoxicity against human KYSE-270 cells measured after 8 days; conditions: KYSE-270, 192 h
NCI-H187 = assay: Cytotoxicity against human NCI-H187 cells measured after 8 days; conditions: NCI-H187, 192 h
HCT-8 = assay: Cytotoxicity against human HCT-8 cells measured after 8 days; conditions: HCT-8, 192 h
HPAF-II = assay: Cytotoxicity against human HPAF-II cells measured after 8 days; conditions: 192 h
[13] = Cytotoxicity against human NCI-H2135 cells measured after 8 days; conditions: NCI-H2135, 192 h
TOV21G = assay: Cytotoxicity against human TOV-21G cells measured after 8 days; conditions: 192 h
COLO-320-HSR = assay: Cytotoxicity against human COLO 320HSR cells measured after 8 days; conditions: 192 h
Capan-2 = assay: Cytotoxicity against human Capan-2 cells measured after 8 days; conditions: Capan-2, 192 h
[14] = Cytotoxicity against human NCE-G 28T cells measured after 8 days; conditions: 192 h
SW837 = assay: Cytotoxicity against human SW837 cells measured after 8 days; conditions: SW837, 192 h
CT26.WT = assay: Cytotoxicity against mouse CT26.WT cells measured after 8 days; conditions: 192 h
KYSE-410 = assay: Cytotoxicity against human KYSE-410 cells measured after 8 days; conditions: KYSE-410, 192 h
[15] = Cytotoxicity against human HCC89 cells measured after 8 days; conditions: HCC89, 192 h
[16] = Cytotoxicity against human OE21 cells measured after 8 days; conditions: OE21, 192 h
AGS = assay: Cytotoxicity against human AGS cells measured after 8 days; conditions: 192 h
JIYOYE = assay: Cytotoxicity against human JIYOYE cells measured after 8 days; conditions: 192 h
PaTu 8988t = assay: Cytotoxicity against human PaTu 8988t cells measured after 8 days; conditions: 192 h
RMG-I = assay: Cytotoxicity against human RMG-I cells measured after 8 days; conditions: 192 h
KYSE-450 = assay: Cytotoxicity against human KYSE-450 cells measured after 8 days; conditions: KYSE-450, 192 h
NCI-H2171 = assay: Cytotoxicity against human NCI-H2171 cells measured after 8 days; conditions: NCI-H2171, 192 h
[17] = Cytotoxicity against human Ri-1 cells measured after 8 days; conditions: Ri-1, 192 h
[18] = Cytotoxicity against human SK23 cells measured after 8 days; conditions: SK-MEL-23, 192 h
RPMI-7951 = assay: Cytotoxicity against human RPMI-7951 cells measured after 8 days; conditions: RPMI-7951, 192 h
[19] = Cytotoxicity against human HCC2885 cells measured after 8 days; conditions: HCC2885, 192 h
C32 = assay: Cytotoxicity against human C32 cells measured after 8 days; conditions: C32, 192 h
[20] = Cytotoxicity against human QGP-1 cells measured after 8 days; conditions: QGP-1, 192 h
LN-229 = assay: Cytotoxicity against human LN-229 cells measured after 8 days; conditions: LN-229, 192 h
OVCAR-3 = assay: Cytotoxicity against human OVCAR-3 cells measured after 8 days; conditions: OVCAR-3, 192 h
MM1.S = assay: Cytotoxicity against human MM1.S cells measured after 8 days; conditions: 192 h
SU-DHL-5 = assay: Cytotoxicity against human SU-DHL-5 cells measured after 8 days; conditions: SU-DHL-5, 192 h
[21] = Cytotoxicity against mouse LA-4 cells measured after 8 days; conditions: LA-4, 192 h

## C/C=C/Cn1cc(-c2ccc(C(C)(C)O)cc2OC)c2cc[nH]c2c1=O
[1]
  IC50: 20 µM
U2OS
  IC50: 20 µM
[2]
  IC50: 20 µM
C3A
  IC50: 20 µM
TMD8
  IC50: 20 µM
HEC-1B cell line
  IC50: 20 µM
[3]
  IC50: 20 µM
SW780
  IC50: 20 µM
COR-L279
  IC50: 20 µM
RCM-1
  IC50: 20 µM
KYSE-140
  IC50: 20 µM
[4]
  IC50: 20 µM
[5]
  IC50: 20 µM
[6]
  IC50: 20 µM
B16-F10
  IC50: 20 µM
RT-112
  IC50: 20 µM
[7]
  IC50: 20 µM
MHH-ES-1
  IC50: 20 µM
NCI-H716
  IC50: 20 µM
[8]
  IC50: 20 µM
S-117
  IC50: 20 µM
[9]
  IC50: 20 µM
G-402
  IC50: 11.7 µM
WM 266-4
  IC50: 20 µM
CFPAC-1
  IC50: 20 µM
[10]
  IC50: 20 µM
[11]
  IC50: 20 µM
[12]
  IC50: 15.5 µM
KALS-1
  IC50: 20 µM
SK-N-AS
  IC50: 20 µM
SISO
  IC50: 20 µM
KYSE-270
  IC50: 20 µM
NCI-H187
  IC50: 20 µM
HCT-8
  IC50: 20 µM
HPAF-II
  IC50: 20 µM
[13]
  IC50: 20 µM
TOV21G
  IC50: 20 µM
COLO-320-HSR
  IC50: 20 µM
Capan-2
  IC50: 20 µM
[14]
  IC50: 20 µM
SW837
  IC50: 20 µM
CT26.WT
  IC50: 20 µM
KYSE-410
  IC50: 20 µM
[15]
  IC50: 20 µM
[16]
  IC50: 20 µM
AGS
  IC50: 20 µM
JIYOYE
  IC50: 13.5 µM
PaTu 8988t
  IC50: 20 µM
RMG-I
  IC50: 20 µM
KYSE-450
  IC50: 20 µM
NCI-H2171
  IC50: 20 µM
[17]
  IC50: 20 µM
[18]
  IC50: 6.07 µM
RPMI-7951
  IC50: 20 µM
[19]
  IC50: 20 µM
C32
  IC50: 20 µM
[20]
  IC50: 20 µM
LN-229
  IC50: 20 µM
OVCAR-3
  IC50: 20 µM
MM1.S
  IC50: 20 µM
SU-DHL-5
  IC50: 10.3 µM
[21]
  IC50: 20 µM

## C/C=C/Cn1cc(-c2ccc(C(=O)N3CCOCC3)cc2)c2cc[nH]c2c1=O
[1]
  IC50: 20 µM
U2OS
  IC50: 20 µM
[2]
  IC50: 20 µM
C3A
  IC50: 20 µM
TMD8
  IC50: 20 µM
HEC-1B cell line
  IC50: 10.6 µM
[3]
  IC50: 19.7 µM
SW780
  IC50: 20 µM
COR-L279
  IC50: 20 µM
RCM-1
  IC50: 20 µM
KYSE-140
  IC50: 20 µM
[4]
  IC50: 20 µM
[5]
  IC50: 20 µM
[6]
  IC50: 20 µM
B16-F10
  IC50: 20 µM
RT-112
  IC50: 20 µM
[7]
  IC50: 20 µM
MHH-ES-1
  IC50: 20 µM
NCI-H716
  IC50: 20 µM
[8]
  IC50: 20 µM
S-117
  IC50: 20 µM
[9]
  IC50: 20 µM
G-402
  IC50: 4.76 µM
WM 266-4
  IC50: 20 µM
CFPAC-1
  IC50: 20 µM
[10]
  IC50: 20 µM
[11]
  IC50: 20 µM
[12]
  IC50: 20 µM
KALS-1
  IC50: 20 µM
SK-N-AS
  IC50: 20 µM
SISO
  IC50: 20 µM
KYSE-270
  IC50: 20 µM
NCI-H187
  IC50: 20 µM
HCT-8
  IC50: 20 µM
HPAF-II
  IC50: 20 µM
[13]
  IC50: 20 µM
TOV21G
  IC50: 20 µM
COLO-320-HSR
  IC50: 20 µM
Capan-2
  IC50: 20 µM
[14]
  IC50: 20 µM
SW837
  IC50: 20 µM
CT26.WT
  IC50: 20 µM
KYSE-410
  IC50: 20 µM
[15]
  IC50: 20 µM
[16]
  IC50: 20 µM
AGS
  IC50: 20 µM
JIYOYE
  IC50: 2.85 µM
PaTu 8988t
  IC50: 20 µM
RMG-I
  IC50: 19.4 µM
KYSE-450
  IC50: 20 µM
NCI-H2171
  IC50: 20 µM
[17]
  IC50: 20 µM
[18]
  IC50: 20 µM
RPMI-7951
  IC50: 20 µM
[19]
  IC50: 20 µM
C32
  IC50: 20 µM
[20]
  IC50: 20 µM
LN-229
  IC50: 20 µM
OVCAR-3
  IC50: 20 µM
MM1.S
  IC50: 20 µM
SU-DHL-5
  IC50: 14.8 µM
[21]
  IC50: 12 µM
